Assay results: PubChem BioAssay AID256 (DTP/NCI, 2004)
“And” between values parts separate entries of the source, which are not always exact repeats. Identical values can stand only once. Inconclusive results and toxic doses are left out. Non-standard residues stand in square brackets, D forms with d. Residues, ends and D or L forms follow the SMILES beside them. ξ: configuration not given here. *: point of attachment. ξF = NC(Cc1ccccc1)C(=O)O; ClAc = O=C(CCl)*

Test system: CD2F1 mice, L1210 leukemia ip, survival T/C
Assay: NCI In Vivo Anticancer Drug Screen. Data for tumor model L1210 Leukemia (intraperitoneal) in CD2F1 (CDF1) mice
Conditions: higher = longer survival
Outline: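 Vehicle-treated tumor-bearing mice served as controls (C) for compound-treated mice (T). Reported figure is T divided by C.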

[1] = endpoint: mean survival time, dose: 100.0 mg/kg/injection, schedule: Q04DX003 (ip), vehicle: saline with Tween-80
[2] = endpoint: mean survival time, dose: 200.0 mg/kg/injection, schedule: Q04DX003 (ip), vehicle: saline with Tween-80
[3] = endpoint: mean survival time, dose: 400.0 mg/kg/injection, schedule: Q04DX003 (ip), vehicle: saline with Tween-80
[4] = endpoint: mean survival time, dose: 100.0 mg/kg/injection, schedule: Q04DX003 (ip), vehicle: saline
[5] = endpoint: mean survival time, dose: 200.0 mg/kg/injection, schedule: Q04DX003 (ip), vehicle: saline
[6] = endpoint: mean survival time, dose: 100.0 mg/kg/injection, schedule: Q01DX001 (ip), vehicle: saline with Tween-80
[7] = endpoint: mean survival time, dose: 200.0 mg/kg/injection, schedule: Q01DX001 (ip), vehicle: saline with Tween-80
[8] = endpoint: mean survival time, dose: 400.0 mg/kg/injection, schedule: Q01DX001 (ip), vehicle: saline with Tween-80

## O=c1cc(O)c(Cl)n[nH]1
endpoint: mean survival time, dose: 25.0 mg/kg/injection, schedule: Q01DX009 (ip), vehicle: other
  T/C: 94 % of control
endpoint: mean survival time, dose: 50.0 mg/kg/injection, schedule: Q01DX009 (ip), vehicle: other
  T/C: 94 % of control
endpoint: mean survival time, dose: 100.0 mg/kg/injection, schedule: Q01DX009 (ip), vehicle: other
  T/C: 97 % of control
endpoint: mean survival time, dose: 200.0 mg/kg/injection, schedule: Q01DX009 (ip), vehicle: other
  T/C: 92 % of control
endpoint: mean survival time, dose: 400.0 mg/kg/injection, schedule: Q01DX009 (ip), vehicle: other
  T/C: 88 % of control

## COC1OC(C2N(c3ccccc3)CCN2c2ccccc2)=CC(OC(C)=O)C1OC(C)=O (stereo not given)
[1]
  T/C: 97 % of control
[2]
  T/C: 107 % of control
[3]
  T/C: 95 % of control

## CC1CC(C)(C)C(C[NH-])C1[NH-].[Cl][Pt+2][Cl] (stereo not given)
endpoint: mean survival time, dose: 3.12 mg/kg/injection, schedule: Q04DX003 (ip), vehicle: saline
  T/C: 115 % of control
endpoint: mean survival time, dose: 50.0 mg/kg/injection, schedule: Q04DX003 (ip), vehicle: saline
  T/C: 261 % of control
[4]
  T/C: 158 % of control and 211 % of control
[5]
  T/C: 94 % of control

## O=S(=O)(Cl)c1ccc(F)cc1
endpoint: mean survival time, dose: 100.0 mg/kg/injection, schedule: Q01DX001 (ip), vehicle: saline
  T/C: 106 % of control
[4]
  T/C: 101 % of control
endpoint: mean survival time, dose: 200.0 mg/kg/injection, schedule: Q01DX001 (ip), vehicle: saline
  T/C: 109 % of control
[5]
  T/C: 102 % of control
endpoint: mean survival time, dose: 400.0 mg/kg/injection, schedule: Q01DX001 (ip), vehicle: saline
  T/C: 103 % of control
endpoint: mean survival time, dose: 400.0 mg/kg/injection, schedule: Q04DX003 (ip), vehicle: saline
  T/C: 98 % of control

## O=C(CCl)NCC(=O)NC(Cc1ccccc1)C(=O)O (stereo not given) (ClAc-Gly-[ξF]-OH)
[1]
  T/C: 98 % of control
[2]
  T/C: 96 % of control
[3]
  T/C: 96 % of control

## Cc1ccc(C)c(C(=O)O)c1N
[1]
  T/C: 95 % of control
[2]
  T/C: 95 % of control
[3]
  T/C: 100 % of control

## CCOc1ccc(-c2nc3ccc(-c4nc5ccc(N6CCN(C)CC6)cc5[nH]4)cc3[nH]2)cc1
endpoint: median survival time, dose: 0.75 mg/kg/injection, schedule: Q01DX009 (ip), vehicle: saline
  T/C: 112 % of control
endpoint: median survival time, dose: 0.75 mg/kg/injection, schedule: Q01DX009 (ip), vehicle: suspension in saline
  T/C: 94 % of control
endpoint: median survival time, dose: 1.5 mg/kg/injection, schedule: Q01DX009 (ip), vehicle: saline
  T/C: 112 % of control
endpoint: median survival time, dose: 1.5 mg/kg/injection, schedule: Q01DX009 (ip), vehicle: suspension in saline
  T/C: 95 % of control
endpoint: median survival time, dose: 3.0 mg/kg/injection, schedule: Q01DX009 (ip), vehicle: suspension in saline
  T/C: 104 % of control
endpoint: median survival time, dose: 6.0 mg/kg/injection, schedule: Q01DX009 (ip), vehicle: suspension in saline
  T/C: 105 % of control
endpoint: median survival time, dose: 12.0 mg/kg/injection, schedule: Q01DX009 (ip), vehicle: suspension in saline
  T/C: 104 % of control
endpoint: median survival time, dose: 24.0 mg/kg/injection, schedule: Q01DX009 (ip), vehicle: saline
  T/C: 118 % of control
endpoint: median survival time, dose: 24.0 mg/kg/injection, schedule: Q01DX009 (ip), vehicle: suspension in saline
  T/C: 117 % of control

## Cc1cc(=O)[nH]c2c(C)cc(Cl)cc12
[1]
  T/C: 106 % of control
[2]
  T/C: 109 % of control
[3]
  T/C: 97 % of control

## Nc1nnnn1-c1ccc(O)cc1
[1]
  T/C: 104 % of control
[2]
  T/C: 98 % of control
[3]
  T/C: 104 % of control

## COC1=CCC2=C(CCO2)C1
endpoint: mean survival time, dose: 100.0 mg/kg/injection, schedule: Q01DX009 (ip), vehicle: acetone
  T/C: 91 % of control
endpoint: mean survival time, dose: 200.0 mg/kg/injection, schedule: Q01DX009 (ip), vehicle: acetone
  T/C: 98 % of control
endpoint: mean survival time, dose: 400.0 mg/kg/injection, schedule: Q01DX009 (ip), vehicle: acetone
  T/C: 100 % of control

## c1ccc2c(c1)CC1Nc3ccccc3C21 (stereo not given)
[6]
  T/C: 97 % of control
[7]
  T/C: 97 % of control
[8]
  T/C: 96 % of control

## Cc1ccc(NC(=O)Nc2cccc(CNC(=O)COc3ccc(Cl)cc3C(=O)O)c2)cc1S(=O)(=O)F
endpoint: mean survival time, dose: 25.0 mg/kg/injection, schedule: Q01DX001 (ip), vehicle: saline with Tween-80
  T/C: 102 % of control
endpoint: mean survival time, dose: 50.0 mg/kg/injection, schedule: Q01DX001 (ip), vehicle: saline with Tween-80
  T/C: 96 % of control
[6]
  T/C: 93 % of control
[7]
  T/C: 86 % of control
[8]
  T/C: 88 % of control
